# Test results published in patent publication US12497393B2, “β-lactam compound, use thereof and preparation method therefor” (priority 2020, dated 2025).
# Read-outs that look alike come from different tables or passages of the source.
# Legend:
# Experiment in all cases: Antibacterial activity MIC assay (two-fold dilution agar plating)
# Format in all cases: cell-based
# [1] = system: Acinetobacter baumannii; settings: for MIC: Acinetobacter baumannii, read-out: Minimal Inhibitory Concentration (MIC)
# Method: (§1) Antibacterial Activity-Evaluating Method (MIC Assay)
# (§2) In this study, the compounds of the present invention were tested for their antibacterial activities by using two-fold dilution agar plating method and Denley Multipoint Inoculator A400 according to the guidelines of the CLSI/NCCLS standard. The tested strains were amplified by hydrolyzed casein peptone (Mueller-Hinton Agar) broth and Brain and Heart Infusion. The strains used in this study were bacterial strains that were purchased from ATCC or clinically isolated in Chinese hospitals. Aztreonam, polymyxin or levofloxacin was used as positive control. The drugs were diluted with hydrolyzed casein peptone broth to the desired concentrations including 128.0, 64.0, 32.0, 16.0, 8.0, 4.0, 2.0, 1.0, 0.5, 0.25, 0.125, 0.06 and 0.03 μg/mL, and then placed respectively into each well and mixed thoroughly. After inoculation, the tested strains were incubated for 18 hours at a constant temperature of 35° C., and their growth levels were observed. The drug concentration with no microbial growth in the well was recorded as the lowest Minimal Inhibitory Concentration (MIC).
# [2] = system: Escherichia coli; settings: for MIC: Escherichia coli, read-out: Minimal Inhibitory Concentration (MIC)
# Method: as §1, §2
# [3] = system: Proteus mirabilis; settings: for MIC: Proteus mirabilis, ATCC49565, Proteus mirabilis ATCC 49565, read-out: Minimal Inhibitory Concentration (MIC)
# Method: as §1, §2
# [4] = system: Salmonella typhi; settings: for MIC: Salmonella enterica, TYPHI, read-out: Minimal Inhibitory Concentration (MIC)
# Method: as §1, §2
# [5] = system: Providencia rettgeri; settings: for MIC: Providencia rettgeri, ATCC31052, Providencia rettgeri ATCC 31052, read-out: Minimal Inhibitory Concentration (MIC)
# Method: as §1, §2
# [6] = system: Pseudomonas aeruginosa; settings: for MIC: read-out: Minimal Inhibitory Concentration (MIC)
# Method: as §1, §2
# [7] = system: Enterobacter cloacae; settings: for MIC: read-out: Minimal Inhibitory Concentration (MIC)
# Method: as §1, §2
# [8] = system: Serratia marcescens; settings: Serratia marcescens ATCC 21074; for MIC: ATCC21074, read-out: Minimal Inhibitory Concentration (MIC)
# Method: as §1, §2
# [9] = system: Klebsiella Pneumoniae; settings: for MIC: Klebsiella pneumoniae, read-out: Minimal Inhibitory Concentration (MIC)
# Method: as §1, §2
# [10] = system: Enterobacter aerogenes; settings: Enterobacter aerogenes ATCC 13048; for MIC: Klebsiella aerogenes, ATCC13048, read-out: Minimal Inhibitory Concentration (MIC)
# Method: as §1, §2
# [11] = system: Proteus vulgaris; settings: for MIC: Proteus vulgaris, ATCC29905, Proteus vulgaris ATCC 29905, read-out: Minimal Inhibitory Concentration (MIC)
# Method: as §1, §2
# [12] = system: Stenotrophomonas maltophilia; settings: Stenotrophomonas maltophilia ATCC 13636; for MIC: ATCC13636, read-out: Minimal Inhibitory Concentration (MIC)
# Method: as §1, §2
# [13] = system: Shigella flexneri; settings: Shigella flexneri ATCC 12022; for MIC: ATCC12022, read-out: Minimal Inhibitory Concentration (MIC)
# Method: as §1, §2
# [14] = system: Citrobacter freundii; settings: Citrobacter freundii ATCC 43864; for MIC: ATCC43864, read-out: Minimal Inhibitory Concentration (MIC)
# Method: as §1, §2
# [15] = ATCC19606, Acinetobacter baumannii ATCC 19606
# [16] = ATCC25922, Escherichia coli ATCC 25922, ESBLs(−)
# [17] = ATCC35218, Escherichia coli ATCC 35218, ESBLs(+)
# [18] = Escherichia coli 08-85, mcr-1(+)
# [19] = Escherichia coli 13-43, mcr-1(+)
# [20] = Escherichia coli 13-66, mcr-1(+)
# [21] = Escherichia coli 16-1, ESBLs(+)
# [22] = Escherichia coli 16-7, ESBLs(−)
# [23] = Escherichia coli 17-R28, CRE, NDM-1(+)
# [24] = Escherichia coli CDC1001728, NDM-1(+)
# [25] = ATCC27853, Pseudomonas aeruginosa ATCC 27853
# [26] = ATCC43560, Enterobacter cloacae ATCC 43560
# [27] = Enterobacter cloacae CDC1000654
# [28] = ATCC700603, Klebsiella Pneumoniae ATCC 700603, ESBLs(+)
# [29] = ATCCBAA2146, Klebsiella Pneumoniae ATCC BAA-2146, NDM-1(+)
# [30] = Klebsiella Pneumoniae 09-20, mcr-1(+)
# [31] = Klebsiella Pneumoniae 16-2, ESBLs(−)
# [32] = Klebsiella Pneumoniae 16-14, ESBLs(+)
structure (smiles),measurement,setting,value
CC1(C)[C@H](NC(=O)/C(=N\OC2(C(=O)O)CC2)c2csc(N)n2)C(=O)N1OS(=O)(=O)O [Compound A-1],MIC,[1]; [15],16 µg/mL
same,MIC,[1]; Acinetobacter baumannii 16-16,64 µg/mL
same,MIC,[1]; Acinetobacter baumannii 16-33,32 µg/mL
same,MIC,[2]; [16],0.12 µg/mL
same,MIC,[2]; [17],0.06 µg/mL
same,MIC,[2]; [18],0.12 µg/mL
same,MIC,[2]; [19],0.12 µg/mL
same,MIC,[2]; [20],0.12 µg/mL
same,MIC,[2]; [21],0.06 µg/mL
same,MIC,[2]; [22],0.12 µg/mL
same,MIC,[2]; [23],4 µg/mL
same,MIC,[2]; [24],0.25 µg/mL
same,MIC,[3],≤ 0.03 µg/mL
same,MIC,[4],0.06 µg/mL
same,MIC,[5],≤ 0.03 µg/mL
same,MIC,[6]; [25],8 µg/mL
same,MIC,[6]; Pseudomonas aeruginosa 16-11,8 µg/mL
same,MIC,[6]; Pseudomonas aeruginosa PAO1,2 µg/mL
same,MIC,[7]; [26],0.06 µg/mL
same,MIC,[7]; [27],2 µg/mL
same,MIC,[8],0.25 µg/mL
same,MIC,[9]; [28],4 µg/mL
same,MIC,[9]; [29],0.5 µg/mL
same,MIC,[9]; [30],0.06 µg/mL
same,MIC,[9]; [31],2 µg/mL
same,MIC,[9]; [32],0.12 µg/mL
same,MIC,"[9]; Klebsiella Pneumoniae 17-R27, CRE",0.25 µg/mL
same,MIC,[10],0.12 µg/mL
same,MIC,[11],≤ 0.03 µg/mL
same,MIC,[12],8 µg/mL
same,MIC,[13],0.12 µg/mL
same,MIC,[14],0.12 µg/mL
"C[C@H]1COc2c(N3CCN(C)CC3)c(F)cc3c(=O)c(C(=O)O)cn1c23 [Levofloxacin, levofloxacin, reference compound]",MIC,[1]; [15],0.25 µg/mL
same,MIC,[1]; Acinetobacter baumannii 16-16,16 µg/mL
same,MIC,[1]; Acinetobacter baumannii 16-33,2 µg/mL
same,MIC,[2]; [16],≤ 0.03 µg/mL
same,MIC,[2]; [17],≤ 0.03 µg/mL
same,MIC,[2]; [18],16 µg/mL
same,MIC,[2]; [19],32 µg/mL
same,MIC,[2]; [20],32 µg/mL
same,MIC,[2]; [21],0.5 µg/mL
same,MIC,[2]; [22],0.5 µg/mL
same,MIC,[2]; [23],8 µg/mL
same,MIC,[2]; [24],8 µg/mL
same,MIC,[3],≤ 0.03 µg/mL
same,MIC,[4],≤ 0.03 µg/mL
same,MIC,[5],≤ 0.03 µg/mL
same,MIC,[6]; [25],1 µg/mL
same,MIC,[6]; Pseudomonas aeruginosa 16-11,0.5 µg/mL
same,MIC,[6]; Pseudomonas aeruginosa PAO1,4 µg/mL
same,MIC,[7]; [26],≤ 0.03 µg/mL
same,MIC,[7]; [27],32 µg/mL
same,MIC,[8],0.12 µg/mL
same,MIC,[9]; [28],0.5 µg/mL
same,MIC,[9]; [29],128 µg/mL
same,MIC,[9]; [30],16 µg/mL
same,MIC,[9]; [31],0.06 µg/mL
same,MIC,[9]; [32],0.5 µg/mL
same,MIC,[10],0.06 µg/mL
same,MIC,[11],≤ 0.03 µg/mL
same,MIC,[12],2 µg/mL
same,MIC,[13],0.06 µg/mL
same,MIC,[14],≤ 0.03 µg/mL
C=CCON=C(C(=O)NC1C(=O)N(OS(=O)(=O)O)C1(C)C)c1csc(N)n1 (stereo not drawn) [Compound B-1],Minimal Inhibitory Concentration (MIC),[1]; Acinetobacter baumannii 16-16,32 µg/mL
same,Minimal Inhibitory Concentration (MIC),[1]; Acinetobacter baumannii 16-33,8 µg/mL
same,Minimal Inhibitory Concentration (MIC),[1]; Acinetobacter baumannii ATCC 19606,8 µg/mL
same,Minimal Inhibitory Concentration (MIC),[2]; [18],0.5 µg/mL
same,Minimal Inhibitory Concentration (MIC),[2]; [19],1 µg/mL
same,Minimal Inhibitory Concentration (MIC),[2]; [20],1 µg/mL
same,Minimal Inhibitory Concentration (MIC),[2]; [21],0.25 µg/mL
same,Minimal Inhibitory Concentration (MIC),[2]; [22],0.25 µg/mL
same,Minimal Inhibitory Concentration (MIC),"[2]; Escherichia coli ATCC 25922, ESBLs(−)",0.5 µg/mL
same,Minimal Inhibitory Concentration (MIC),"[2]; Escherichia coli ATCC 35218, ESBLs(+)",0.5 µg/mL
same,Minimal Inhibitory Concentration (MIC),[2]; [24],4 µg/mL
same,Minimal Inhibitory Concentration (MIC),[3]; Proteus mirabilis ATCC 49565,0.125 µg/mL
same,Minimal Inhibitory Concentration (MIC),[4]; Salmonella typhi H901,0.25 µg/mL
same,Minimal Inhibitory Concentration (MIC),[5]; Providencia rettgeri ATCC 31052,≤0.03 µg/mL
same,Minimal Inhibitory Concentration (MIC),[6]; Pseudomonas aeruginosa 16-11,>64 µg/mL
same,Minimal Inhibitory Concentration (MIC),[6]; Pseudomonas aeruginosa ATCC 27853,64 µg/mL
same,Minimal Inhibitory Concentration (MIC),[6]; Pseudomonas aeruginosa PAO1,16 µg/mL
same,Minimal Inhibitory Concentration (MIC),[7]; Enterobacter cloacae ATCC 43560,0.25 µg/mL
same,Minimal Inhibitory Concentration (MIC),[7]; [27],8 µg/mL
same,Minimal Inhibitory Concentration (MIC),[8],1 µg/mL
same,Minimal Inhibitory Concentration (MIC),[9]; [30],1 µg/mL
same,Minimal Inhibitory Concentration (MIC),[9]; [31],0.5 µg/mL
same,Minimal Inhibitory Concentration (MIC),[9]; [32],0.5 µg/mL
same,Minimal Inhibitory Concentration (MIC),"[9]; Klebsiella Pneumoniae ATCC 700603, ESBLs(+)",16 µg/mL
same,Minimal Inhibitory Concentration (MIC),"[9]; Klebsiella Pneumoniae ATCC BAA-2146, NDM-1(+)",4 µg/mL
same,Minimal Inhibitory Concentration (MIC),[10],1 µg/mL
same,Minimal Inhibitory Concentration (MIC),[11]; Proteus vulgaris ATCC 29905,≤0.03 µg/mL
same,Minimal Inhibitory Concentration (MIC),[12],16 µg/mL
same,Minimal Inhibitory Concentration (MIC),[13],0.5 µg/mL
same,Minimal Inhibitory Concentration (MIC),[14],0.5 µg/mL
